SMILES strings stand for the structures.

One assay concerns the target T1, apelinR / β-arrestin1 (Homo sapiens, UniProt P35414).
T1 sequence (P35414 1-380): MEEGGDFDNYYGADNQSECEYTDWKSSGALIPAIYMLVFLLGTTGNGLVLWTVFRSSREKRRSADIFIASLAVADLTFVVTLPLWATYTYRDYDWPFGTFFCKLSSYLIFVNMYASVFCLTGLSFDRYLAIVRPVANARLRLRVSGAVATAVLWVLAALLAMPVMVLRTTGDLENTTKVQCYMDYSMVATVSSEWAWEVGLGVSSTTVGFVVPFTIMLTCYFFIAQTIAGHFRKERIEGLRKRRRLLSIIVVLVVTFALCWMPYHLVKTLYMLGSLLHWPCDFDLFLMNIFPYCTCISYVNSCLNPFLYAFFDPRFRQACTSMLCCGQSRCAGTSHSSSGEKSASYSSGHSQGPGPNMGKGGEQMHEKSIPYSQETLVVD
Description: ebBRET β-arrestin1 recruitment. The assay is classed as cell-based. To be noted: HEK293 cells transfected with apelinR, β-arrestin1-RlucII, rGFP-CAAX; 10 min at 37 °C; mean ± SEM of 5 to 6 independent experiments; read-out: β-arr1 recruitment log EC50 (converted). A general note: Arrestin recruitment assays detect the binding of arrestin to an activated receptor.

Another assay has as its target apelinR. More on the design: method as in PMID 33663236. To be noted: cited from earlier work.
Assay [1] relates to isolated mouse heart (ischemia–reperfusion injury). Description: Ex vivo Langendorff heart perfusion with ischemia–reperfusion. Particulars: 1 μM in perfusion buffer for first 10 min of reperfusion after 30 min ischemia; compared to placebo; one-way ANOVA, Dunnett.
The next assay has as its target T2, apelinR / β-arrestin2 (Homo sapiens, UniProt P35414).
T2 sequence (P35414 1-380): T1 sequence (P35414 1-380)
The assay can be described thus: ebBRET β-arrestin2 recruitment. To be noted: HEK293 cells transfected with apelinR, β-arrestin2-RlucII, rGFP-CAAX; 10 min at 37 °C; mean ± SEM of 5 to 6 independent experiments; read-out: β-arr2 recruitment log EC50 (converted). Type of assay: cell-based.

In assay [2] the test system is wild-type male mice (C57BL/6). The assay can be described thus: Blood pressure lowering assay in anesthetized mice. The assay is classed as in vivo, mouse. Particulars: 0.5 μmol kg^−1 infusion during 5 min via jugular vein; anesthetized wild-type male C57BL/6 mice; compared to vehicle control. As for the experimental part: The metabolically stable apelin analogues from each isoform, CbzPEG6–NMeLeu17A2 and NMeLeu13A2 along with the small molecule agonist, BMS-986224 (0.5 μmol kg^−1 infusion during 5 min for each compound), were tested for their BP lowering activity in anesthetized wild-type male mice (C57BL/6, 24–30 g). […] In contrast, the hypotensive effect of CbzPEG6–NMeLeu17A2 was observed immediately after infusion. This analogue reduced mean arterial pressure (MAP) by approximately 50% during the experiment, with the effect sustained for more than 30 minutes post-administration. Apelin can act on the endothelial layer of vasculature, leading to systemic changes in blood pressure by increasing the synthesis of nitric oxide (NO).[5] The effect of CbzPEG6–NMeLeu17A2 on […], which decreases the […] resistance by increasing eNOS activation and NO production through the activation of the PI3K/Akt signalling pathway on endothelial cells like other apelin analogues we tested in the previous studies.[5,11]
The blood pressure measurement and apelin injection method has been described in our previous research.[43] During the blood pressure testing, mice aged 12–14 weeks were anesthetized with 1.5% isoflurane in oxygen and monitored throughout the experiment. The blood pressure was measured using a PV loop catheter (model 1.2F, Transonic) […] into the left carotid artery. The monitor system (LabScribe 2.0. Scisense) recorded aortic blood pressure and heart rate. After a 20-minute baseline measurement, CbzPEG6–NMeLeu17A2, NMeLeu13A2, RI13, RI13A2, RI17, RI17A2, and BMS-986224 (0.5 μmol […] body weight) were diluted in saline and consistently infused for 5 min via the right jugular vein. For BMS-986224, 0.1% DMSO was added to saline to help with dilution. Blood pressure was continuously recorded for 60 minutes post-infusion.
3. Effects of APJ agonists on blood pressure
Figure S3. Different effects of apelin analog and receptor agonist on blood pressure and ischemia-reperfusion injury. A) the effect of CbzPEG6–NMeLeu17A2 (n=3) on mean arterial blood pressure (MAP), B) the effect of apelin 13 analog, NMeLeu13A2, on MAP (n=4). The effect of apelin 13 analog reverse enantiomers, C) RI13 (n=4) and D) RI13A2 (n=4), on MAP. The effect of apelin 17 reverse enantiomers, E) RI17 (n=4) and F) RI17A2 (n=4) on MAP. G) The effect of small molecule apelin receptor agonist BMS-986224 on blood pressure (n=4). The MAP recording between 50 and 60 minutes has been averaged and compared with their controls (placebo (n=4)). The vehicle for BMS-986224 is 0.1% DMSO (n=3). The arrow indicates the time when analogs were introduced. Values mean ±SEM and ****P<0.0001, compared to the control group.
(1 picture or pasted object on this page, not shown here)

The target of a further assay is T3, human apelinR (Homo sapiens, UniProt P35414).
T3 construct: expressed in transfected cells; crude membrane preparations
T3 sequence (P35414 1-380): T1 sequence (P35414 1-380)
The assay can be described thus: ApelinR radioligand binding experiment (competition with [125I]-(Nle11,Tyr13) apelin-13). To be noted: Fig. 1; membranes of CHO cells stably expressing hApelinR; 0.2 nM [125I]-(Nle11,Tyr13) apelin-13; 3 h at 20 °C; n = 4 to 6 independent experiments in duplicate; read-out: Binding affinity IC50 ± SEM.

A further assay deals with T4, apelinR / human Gαi2 (Homo sapiens, UniProt P35414).
T4 sequence (P35414 1-380): T1 sequence (P35414 1-380)
Description: ebBRET Gαi2 activation. The assay is classed as cell-based. Particulars: HEK293 cells transfected with apelinR, human Gαi2, Rap1GAP-RlucII, rGFP-CAAX; 10 min at 37 °C; mean ± SEM of 5 to 6 independent experiments; read-out: Gαi2 activation log EC50 (converted).

The next assay concerns rats. Particulars: cited from earlier work. From the text: Another avenue being investigated is the use of small molecule as agonists for the apelinR, such as, Bristol Myers Squibb's BMS-986224,[26,27] Amgen's AMG986,[28] and Davenport's CMF-019.[29] […] In contrast, the two non peptidic apelinR agonists, BMS-98622 ...
Another assay concerns the target T5, apelinR / human Gαi1 (Homo sapiens, UniProt P35414).
T5 sequence (P35414 1-380): T1 sequence (P35414 1-380)
The assay can be described thus: ebBRET Gαi1 activation. Type of assay: cell-based. Particulars: HEK293 cells transfected with apelinR, human Gαi1, Rap1GAP-RlucII, rGFP-CAAX; 10 min at 37 °C; mean ± SEM of 5 to 6 independent experiments; read-out: Gαi1 activation log EC50 (converted).

For assay [3] the following is noted: G-protein-biased agonists; cited from earlier work. From the text: The therapeutic potential of biased and unbiased agonists for the apelinR remains an area of active investigation, particularly regarding their effects on BP regulation. […] In contrast, the two non peptidic apelinR agonists, BMS-98622 ...

Description for human apelinR: Graphic is the compilation of n independent experiments performed in duplicate (n from 4 to 6). Error bars represent the SD of 4 to 6 independent experiments.
The reaction was stopped with cold 10 mM Hepes pH 7.5, 1 mM MgCl2 buffer and filtered on Whatman GF/C filters. After washing the filters, radioactivity was measured using a Wallac gamma counter.
APJ receptor agonist IC50 (nM)
Competition binding curves of different apelin receptor ligands. Membranes of CHO cells stably expressing the
concentrations of each ligand (from 1 pM to 10 µM).
in the absence of any unlabeled ligand. Graphic is a compilation of 4 independent experiments performed in duplicate.

As a reminder, the EC50 is the concentration that produces a half-maximal response. What is called Kd is the equilibrium constant for the complex coming apart. The term IC50 denotes the concentration that inhibits the measured activity by half. Take `CCOCc1nc(O)c(-c2nnc(Cc3ccc(Cl)cn3)o2)c(O)c1-c1c(OC)cccc1OC` [BMS-986224, reference compound]: the EC50 was 10.7 nM at apelinR / β-arrestin1, 8.91 nM on apelinR / β-arrestin2, 0.11 nM at apelinR / human Gαi2 and 0.102 nM on apelinR / human Gαi1. Besides, the Kd at apelinR is 0.3 nM. Moreover, in assay [1], the “cardioprotective effect / cardiac function recovery after ischemia–reperfusion (LVDP, RPP, max dP/dt, min dP/dt; in words)” value was “failed to show significance in cardiac function recovery”. Moreover, in [2], the “hypotensive effect (BP lowering activity, in words)” value is “no hypotensive effect”. The IC50 at human apelinR was found to be 16.4 ± 5.42 nM. Also, the “change in BP in a myocardial infarction (MI) rat model and a hypertension-induced cardiac dysfunction rat model (in words)” value in the assay with rats (MI rat model, hypertension-induced cardiac dysfunction rat model) is recorded as “do not induce any change in BP”. Also, the “BP in anesthetized normotensive rats (in words)” value in the assay on rats (anesthetized normotensive rats, at the beginning of the infusion) is “slight but significant decrease in BP”. The “cardiac effects and blood pressure in a rat pressure–volume loop model (in words)” value in the assay on rats (rat pressure–volume loop model) is on record as “positive cardiac effects without significantly lowering blood pressure”.
With `CCC(CC)n1c(Cc2cccs2)nc2cc(C(=O)N[C@H](CC(=O)O)CC(C)C)ccc21` [CMF-019], the “vasodilation (in words)” value in [3] is given as “demonstrated vasodilation”.

The values are drawn from article PMC12715805, “Screening apelin analogues and a small molecule agonist as effective cardiovascular therapeutics against reperfusion injury” (RSC Medicinal Chemistry, 2025).
